system: cancer cell W-2K-11; test: Growth inhibition of cancer cell W-2K-11 (percent inhibition of cell multiplication, Table 2); assay type: cell-based, mouse; details: Mus musculus, 48 h, read-out: Percent inhibition (%)
Protocol: Cancer cell W-2K-11 was obtained by transforming fibroblast C3H-2K clone derived from kidney of mouse by cancerogenic virus. The cancer cell W-2K-11 was cultured by the following method.
(1) Preparation of culture medium
9.4 Gram of Eagle's MEM culture media (manufactured by Nissui Seiyaku K. K.) was dissolved in 900 ml. of distilled water and the solution was sterilized under high pressure at 120° C. for 15 minutes and cooled. 100 Ml. of calf serum and 3-5 ml. of 10% aqueous solution of sodium bicarbonate were added to the solution to adjust pH to 7.1-7.2. 10 Ml. of an aqueous solution of L-glutamine (2.92 g./100 ml.) filtered by a millipore filter was added just before the use of the solution as culture medium.
(2) Preparation of transplanted cell solution
The cancer cell W-2K-11 stored in a freezer at -80° C. was melted at room temperature and treated by a centrifugal separator at 670 g. for 5 minutes. The precipitated cell was dispersed in 50 ml. of the culture medium (1). The suspension was charged into Roux flask and cultured at 37° C. The multiplication of the cells was initiated and accomplished after 3 to 4 days. The cultured mixture was decanted and 10 ml. of 0.2% trypsin solution was added and the mixture was kept at room temperature for 2 to 3 minutes and the trypsin mixture was decanted and then, 50 ml. of the culture medium (1) was added to prepare a suspension of cells.
(3) Incubation of cells and addition of sample
1.8 Ml. of the suspension of cells (2) was charged into each Petri dish and incubated in a carbon dioxide gas incubator (5% of CO2; 95% of air) at 37° C. Twenty four hours after the initiation of the incubation, 0.2 ml. of each ethanol solution of each sample was added, and the incubation was continued. Forty eight hours after the addition of the sample, numbers of survival cells were counted under a microscopic observation and each percent inhibition of cell multiplication was calculated. [formula]

Row | Compound | inhibition at 1 µg/mL | inhibition at 10 µg/mL | inhibition at 5 µg/mL
1 | COC1/C=C\C=C(/C)C(=O)NC2=CC(=O)C(N3CC3)=C(CC(C)CC(OC)C(O)C(C)/C=C(\C)C1OC(N)=O)C2=O (stereo not shown) [Example 2, 17-ethyleneimino-Geldenamycin] | 97% |  | 
2 | CCCCCNC1=C2CC(C)CC(OC)C(O)C(C)/C=C(\C)C(OC(N)=O)C(OC)/C=C\C=C(/C)C(=O)NC(=CC1=O)C2=O (stereo not shown) [Example 6] | 90% |  | 
3 | CCCCCCCCCCNC1=C2CC(C)CC(OC)C(O)C(C)/C=C(\C)C(OC(N)=O)C(OC)/C=C\C=C(/C)C(=O)NC(=CC1=O)C2=O (stereo not shown) [Example 10] |  | 48% | 
4 | COC1/C=C\C=C(/C)C(=O)NC2=CC(=O)C(NCC(C)C)=C(CC(C)CC(OC)C(O)C(C)/C=C(\C)C1OC(N)=O)C2=O (stereo not shown) [Example 12] | 90% |  | 
5 | COC1/C=C\C=C(/C)C(=O)NC2=CC(=O)C(NCCCl)=C(CC(C)CC(OC)C(O)C(C)/C=C(\C)C1OC(N)=O)C2=O (stereo not shown) [Example 20] | 98% |  | 
6 | COC1C=CC=C(C)C(=O)NC2=CC(=O)C(NCc3ccncc3)=C(CC(C)CC(OC)C(O)C(C)C=C(C)C1OC(N)=O)C2=O (stereo not shown) [Example 30] |  |  | 95%
7 | COC1C=CC=C(C)C(=O)NC2=CC(=O)C(NCCc3ccccn3)=C(CC(C)CC(OC)C(O)C(C)C=C(C)C1OC(N)=O)C2=O (stereo not shown) [Example 31] |  |  | 93%
8 | COC1=C2CC(C)CC(OC)C(O)C(C)C=C(C)C(OC(N)=O)C(OC)C=CC=C(C)C(=O)NC(=C(I)C1=O)C2=O (stereo not shown) [Example 38, 19-iodo-Geldanamycin] |  |  | 95%
9 | CNC(=O)OC1C(C)=CC(C)C(O)C(OC)CC(C)CC2=C(OC)C(=O)C=C(N=C(OC)C(C)=CC=CC1OC)C2=O (stereo not shown) [Example 44, 1-O-methyl-7-OCONH-methyl-Geldanamycin] | 94% | 80% | 

same assay, conditions: Mus musculus; concentration 0.5 μg/ml; 48 hours after addition of sample; W-2K-11 cells

Row | Compound | inhibition at 0.5 µg/mL
10 | COCCNC1=C2CC(C)CC(OC)C(O)C(C)C=C(C)C(OC(N)=O)C(OC)C=CC=C(C)C(=O)NC(=CC1=O)C2=O (stereo not shown) [Example 33] | 95%

same assay, conditions: Mus musculus; concentration 1 μg/ml; 48 hours after addition of sample; W-2K-11 cells; read-out: Percent inhibition (%)

Row | Compound | inhibition at 1 µg/mL
11 | CCCNC1=C2CC(C)CC(OC)C(O)C(C)/C=C(\C)C(OC(N)=O)C(OC)/C=C\C=C(/C)C(=O)NC(=CC1=O)C2=O (stereo not shown) [Example 1, 17-n-propylamino-Geldanamycin] | 92%
12 | CCNC1=C2CC(C)CC(OC)C(O)C(C)/C=C(\C)C(OC(N)=O)C(OC)/C=C\C=C(/C)C(=O)NC(=CC1=O)C2=O (stereo not shown) [Example 3] | 90%
13 | CCCCNC1=C2CC(C)CC(OC)C(O)C(C)/C=C(\C)C(OC(N)=O)C(OC)/C=C\C=C(/C)C(=O)NC(=CC1=O)C2=O (stereo not shown) [Example 5] | 85%
14 | CCCCCCNC1=C2CC(C)CC(OC)C(O)C(C)/C=C(\C)C(OC(N)=O)C(OC)/C=C\C=C(/C)C(=O)NC(=CC1=O)C2=O (stereo not shown) [Example 7] | 90%
15 | CCCCCCCNC1=C2CC(C)CC(OC)C(O)C(C)/C=C(\C)C(OC(N)=O)C(OC)/C=C\C=C(/C)C(=O)NC(=CC1=O)C2=O (stereo not shown) [Example 8] | 96%
16 | COC1/C=C\C=C(/C)C(=O)NC2=CC(=O)C(NC3CC3)=C(CC(C)CC(OC)C(O)C(C)/C=C(\C)C1OC(N)=O)C2=O (stereo not shown) [Example 13] | 94%
17 | COC1/C=C\C=C(/C)C(=O)NC2=CC(=O)C(NC3CCCC3)=C(CC(C)CC(OC)C(O)C(C)/C=C(\C)C1OC(N)=O)C2=O (stereo not shown) [Example 14] | 98%
18 | COC1/C=C\C=C(/C)C(=O)NC2=CC(=O)C(NC3CCCCC3)=C(CC(C)CC(OC)C(O)C(C)/C=C(\C)C1OC(N)=O)C2=O (stereo not shown) [Example 15] | 98%
19 | COC1/C=C\C=C(/C)C(=O)NC2=CC(=O)C(NCCO)=C(CC(C)CC(OC)C(O)C(C)/C=C(\C)C1OC(N)=O)C2=O (stereo not shown) [Example 18] | 98%
20 | C=CCNC1=C2CC(C)CC(OC)C(O)C(C)/C=C(\C)C(OC(N)=O)C(OC)/C=C\C=C(/C)C(=O)NC(=CC1=O)C2=O (stereo not shown) [Example 22] | 93%
21 | COC1C=CC=C(C)C(=O)NC2=CC(=O)C(NCc3ccccc3)=C(CC(C)CC(OC)C(O)C(C)C=C(C)C1OC(N)=O)C2=O (stereo not shown) [Example 23] | 88%
22 | COC1C=CC=C(C)C(=O)NC2=CC(=O)C(NCCc3ccccc3)=C(CC(C)CC(OC)C(O)C(C)C=C(C)C1OC(N)=O)C2=O (stereo not shown) [Example 24] | 82%
23 | COC1=C2CC(C)CC(OC)C(O)C(C)C=C(C)C(OC(N)=O)C(OC)C=CC=C(C)C(=O)NC(=C(N(C)C)C1=O)C2=O (stereo not shown) [Example 36, 19-dimethylamino-Geldanamycin] | 70%
24 | COC1=NC2=CC(=O)C(OC)=C(CC(C)CC(OC)C(O)C(C)C=C(C)C(OC(N)=O)C(OC)C=CC=C1C)C2=O (stereo not shown) [Example 40, 1-O-methyl-Geldanamycin] | 80%
25 | CNC(=O)OC1C(C)=CC(C)C(O)C(OC)CC(C)CC2=C(OC)C(=O)C=C(C2=O)N(C)C(=O)C(C)=CC=CC1OC (stereo not shown) [Example 42, 21-N-methyl-7-OCONH-methyl-Geldanamycin] | 82%
26 | CNC(=O)OC1C(C)=CC(C)C(O)C(OC)CC(C)CC2=C(OC)C(=O)C=C(NC(=O)C(C)=CC=CC1OC)C2=O (stereo not shown) [Example 43, 7-OCONH-methyl Geldanamycin] | 60%

same assay, conditions: Mus musculus; concentration 5 μg/ml; 48 hours after addition of sample; W-2K-11 cells; read-out: Percent inhibition (%)

Row | Compound | inhibition at 5 µg/mL
27 | COC1/C=C\C=C(/C)C(=O)NC2=CC(=O)C(NCCN)=C(CC(C)CC(OC)C(O)C(C)/C=C(\C)C1OC(N)=O)C2=O (stereo not shown) [Example 4] | 57%
28 | COC1C=CC=C(C)C(=O)NC2=CC(=O)C(NCCN3CCOCC3)=C(CC(C)CC(OC)C(O)C(C)C=C(C)C1OC(N)=O)C2=O (stereo not shown) [Example 26] | 93%
29 | COC1C=CC=C(C)C(=O)NC2=CC(=O)C(NCc3ccccn3)=C(CC(C)CC(OC)C(O)C(C)C=C(C)C1OC(N)=O)C2=O (stereo not shown) [Example 28] | 90%
30 | COC1C=CC=C(C)C(=O)NC2=CC(=O)C(NCc3cccnc3)=C(CC(C)CC(OC)C(O)C(C)C=C(C)C1OC(N)=O)C2=O (stereo not shown) [Example 29] | 92%
31 | COC1C=CC=C(C)C(=O)NC2=CC(=O)C(NCCN3CCCC3)=C(CC(C)CC(OC)C(O)C(C)C=C(C)C1OC(N)=O)C2=O (stereo not shown) [Example 32] | 84%
32 | CNCCNC1=C2CC(C)CC(OC)C(O)C(C)C=C(C)C(OC(N)=O)C(OC)C=CC=C(C)C(=O)NC(=CC1=O)C2=O (stereo not shown) [Example 34] | 67%
33 | COC1=C2CC(C)CC(OC)C(O)C(C)C=C(C)C(OC(N)=O)C(OC)C=CC=C(C)C(=O)NC(=C(Br)C1=O)C2=O (stereo not shown) [Example 37, 19-bromo-Geldanamycin] | 84%
34 | COC1=C2CC(C)CC(OC)C(O)C(C)C=C(C)C(OC(N)=O)C(OC)C=CC=C(C)C(=O)NC(=C(Cl)C1=O)C2=O (stereo not shown) [Example 39, 19-chloro-Geldanamycin] | 91%

same assay, conditions: Mus musculus; concentration 10 μg/ml; 48 hours after addition of sample; W-2K-11 cells; read-out: Percent inhibition (%)

Row | Compound | inhibition at 10 µg/mL
35 | CCCCCCCCNC1=C2CC(C)CC(OC)C(O)C(C)/C=C(\C)C(OC(N)=O)C(OC)/C=C\C=C(/C)C(=O)NC(=CC1=O)C2=O (stereo not shown) [Example 9] | 67%
36 | CCCCCCCCCCCCNC1=C2CC(C)CC(OC)C(O)C(C)/C=C(\C)C(OC(N)=O)C(OC)/C=C\C=C(/C)C(=O)NC(=CC1=O)C2=O (stereo not shown) [Example 11] | 79%
37 | COC1/C=C\C=C(/C)C(=O)NC2=CC(=O)C(NC3CCCC3)=C(CC(C)CC(OC)C(O)C(C)/C=C(\C)C1OC(N)=O)C2=O (stereo not shown) [Example 14] | 97%
38 | COC1/C=C\C=C(/C)C(=O)NC2=CC(=O)C(NC3CCCCCC3)=C(CC(C)CC(OC)C(O)C(C)/C=C(\C)C1OC(N)=O)C2=O (stereo not shown) [Example 16] | 98%
39 | COC1/C=C\C=C(/C)C(=O)NC2=CC(=O)C(NCCOCCO)=C(CC(C)CC(OC)C(O)C(C)/C=C(\C)C1OC(N)=O)C2=O (stereo not shown) [Example 19] | 88%
40 | COC1/C=C\C=C(/C)C(=O)NC2=CC(=O)C(NCCCCN)=C(CC(C)CC(OC)C(O)C(C)/C=C(\C)C1OC(N)=O)C2=O (stereo not shown) [Example 21] | 53%
41 | COC1C=CC=C(C)C(=O)NC2=CC(=O)C(N3CCCC3)=C(CC(C)CC(OC)C(O)C(C)C=C(C)C1OC(N)=O)C2=O (stereo not shown) [Example 25] | 97%
42 | COC1=C2CC(C)CC(OC)C(O)C(C)C=C(C)C(OC(N)=O)C(OC)C=CC=C(C)C(=O)NC(=C(N(C)C)C1=O)C2=O (stereo not shown) [Example 36, 19-dimethylamino-Geldanamycin] | 84%
43 | COC1=NC2=CC(=O)C(OC)=C(CC(C)CC(OC)C(O)C(C)C=C(C)C(OC(N)=O)C(OC)C=CC=C1C)C2=O (stereo not shown) [Example 40, 1-O-methyl-Geldanamycin] | 95%
44 | CNC(=O)OC1C(C)=CC(C)C(O)C(OC)CC(C)CC2=C(OC)C(=O)C=C(C2=O)N(C)C(=O)C(C)=CC=CC1OC (stereo not shown) [Example 42, 21-N-methyl-7-OCONH-methyl-Geldanamycin] | 94%
45 | CNC(=O)OC1C(C)=CC(C)C(O)C(OC)CC(C)CC2=C(OC)C(=O)C=C(NC(=O)C(C)=CC=CC1OC)C2=O (stereo not shown) [Example 43, 7-OCONH-methyl Geldanamycin] | 96%

same assay, conditions: concentration 1 μg/ml; 48 hours after addition of sample; W-2K-11 cells

Row | Compound | Percent inhibition (%)
46 | 17-demethoxy-17,19-bisdimethylamino-Geldenamycin [Example 35] | 92%

same assay, conditions: concentration 5 μg/ml; 48 hours after addition of sample; W-2K-11 cells

Row | Compound | Percent inhibition (%)
47 | CO[C@H]1/C=C\C=C(/C)C(=O)NC2=CC(=O)C(NCCN3CCCCC3)=C(C[C@@H](C)C[C@H](OC)[C@H](O)[C@@H](C)/C=C(\C)[C@@H]1OC(N)=O)C2=O [Example 27] | 57%

same assay, conditions: concentration 10 μg/ml; 48 hours after addition of sample; W-2K-11 cells

Row | Compound | Percent inhibition (%)
48 | 17-demethoxy-17,19-bisdimethylamino-Geldenamycin [Example 35] | 97%
49 | COC1C=CC=C(C)C(=O)NC2=CC(=O)C(NCC34CC5CC(CC(C5)C3)C4)=C(CC(C)CC(OC)C(O)C(C)C=C(C)C1OC(N)=O)C2=O (stereo not shown) [Example 17] | 98%

system: not listed separately; test: Acute toxicity, LD50 to mouse by intraperitoneal injection (Table 3); details: in vivo, ip
Protocol: LD50 of each sample to mouse was measured by intraperitoneal injection of each sample.

Row | Compound | LD50
50 | CCNC1=C2CC(C)CC(OC)C(O)C(C)/C=C(\C)C(OC(N)=O)C(OC)/C=C\C=C(/C)C(=O)NC(=CC1=O)C2=O (stereo not shown) [Example 3] | 120 mg/kg
51 | COC1=C2CC(C)CC(OC)C(O)C(C)C=C(C)C(OC(N)=O)C(OC)C=CC=C(C)C(=O)NC(=C(N(C)C)C1=O)C2=O (stereo not shown) [Example 36, 19-dimethylamino-Geldanamycin] | > 240 mg/kg

Reference: patent publication US4261989A, “Geldanamycin derivatives and antitumor drug” (Kaken Chemical Co. Ltd., priority 1979, dated 1981)
